The source of these data is US8263562B2, “Peptides for preventing or treating liver damage” (priority 2006, dated 2012).

The test system of assay [1] is BCG vaccine and lipopolysaccharide-induced immunological liver damage. In kind it is in vivo, Wistar Rats. The conditions noted are these: for pathological condition of liver (score) versus model group: P<0.05.
Assay [2] has as its system tetrachloromethane-induced liver damage. In words: Tetrachloromethane-induced liver damage of mice. In kind it is in vivo, BALB/c mice.
Experimental: At the first before the first immunization, 0.05 ml CCl4 (available from Shanghai Linfen Chemical Reagent Co., Ltd.) was administered via subcutaneous injection to each mouse of all groups other than the blank control group; and the equivalent volume of physiological saline was injected for the blank control group.
Mice in the high dose group, the medium dose group and the low dose group were immunized as follows: the first immunization was performed by the following process: 1000 of Peptide A dissolved in physiological saline was mixed thoroughly with the equivalent volume of Freund's complete adjuvant, and then 0.2 ml of the resultant water-in-oil emulsion was administered via subcutaneous injection to each mouse, wherein the dosage of Peptide A contained in the emulsion was 250 μg/kg mouse body weight for the high dose group, 125 μg/kg mouse body weight for the medium dose group, and 62.5 μg/kg mouse body weight for the low dose group respectively. 14 days later, the second immunization was performed in the same dosage and manner as the first immunization except that, Freund's complete adjuvant was replaced by Freund's incomplete adjuvant. 14 days later, the third immunization was performed in the same dosage and manner as the first immunization except that, Freund's complete adjuvant was replaced by Freund's incomplete adjuvant. 14 days later, the fourth immunization was performed by the following process: 0.1 ml of Peptide A dissolved in physiological saline was administered without any adjuvants via intraperitoneal injection to each rat, wherein the dosage of Peptide A was 250 μg/kg mouse body weight for the high dose group, 125 μg/kg mouse body weight for the medium dose group, and 62.5 μg/kg mouse body weight for the low dose group respectively.
At the days of immunization for the high dose group, the medium dose group and the low dose group, starting at Day 0, the corresponding physiological saline was injected into each rat of the model group and the blank control group, for up to four times; meanwhile, the corresponding adjuvant and physiological saline were injected for the adjuvant control group, for up to four times.
At the first day before the fourth immunization, 0.05 ml CCl4 was administered via subcutaneous injection to each mouse of all groups other than the blank control group; and the equivalent volume of physiological saline was injected for the blank control group. At the second day after the fourth immunization, all of mice were sacrificed.
Just before sacrificing all mice, each rat was weighed, and then sacrificed by cervical dislocation. Then Blood was collected, before sera were isolated.
The subject of assay [3] is IL-10. Nature of the assay: Level of IL-10 in sera of immunized mice by ELISA. The format is in vivo, BALB/c Mice. To be noted: first day after the fourth immunization. How it is done: BALB/c Mice, all of which are male, 6 week old, and purchased from the Laboratory Animal Center of Academy Of Military Medical Sciences, Beijing, were divided into 4 groups as follows with 5 mice in each group: (1) the control group; (2) the Peptide A group, immunized with Peptide A; (3) the Peptide B group, immunized with Peptide B; and (4) the Peptide C group, immunized with Peptide C.
50 μl of the peptide (100 μg/μl) used in the corresponding group and 50 μl of Freund's complete adjuvant (GIBCOBRL Corp.) were mixed thoroughly with a microstirrer, and the mixture was injected into the claw pad of a mouse, thereby the first immunization was performed for each of the mice. 14 days later, booster immunization was performed in the same manner as the first immunization with 50 μl of the peptide (100 μg/μl) used in the corresponding group and 50 μl of Freund's complete adjuvant (GIBCOBRL Corp.). 14 days later, another booster immunization was performed in the same manner. 14 days later, boost immunization was performed by injecting 100 μg of the peptide dissolved in 200 μl PBS into the mouse intramuscularly. During the process of immunization, only the corresponding adjuvant and PBS were injected for the control group. At the first day after the fourth immunization, mice were sacrificed and sera were collected.
According to the specification of the manufacturer, the levels of cytokines (i.e., IL-4, IL-10, and γ-IFN) in sera of the above immunized mice were detected respectively by using IL-4 Quantikine ELASA Kit, IL-10 Quantikine ELASA Kit, and γ-IFN Quantikine ELASA Kit (all of which are purchased from R&D, Inc.).

Assay [4] has as its system sera of patients with HBV. Nature of the assay: Indirect ELISA, reactivity of the peptides to sera of patients with Hepatitis B. The format is binding, human. To be noted: sera of 10 patients with HBV. The protocol:
Sera of patients with Hepatitis B (HBV): obtained from inpatients with Hepatitis B in the Liberation Army 302 Hospital, who was positive for the surface antigen of Hepatitis B virus as assayed.
The reactivity of the individual peptide of the invention to sera was detected by standard indirect ELISA technology using Model DG3022 Enzyme-Linked Immunoassay Analyzer (purchased from Perkin Elmer Corporation). 10 μg of Peptide A, Peptide B, Peptide C, and Peptide Conjugate A were added respectively into the basic coating buffer (0.1 mol/L NaHCO3, 35 μl; 0.1 mol/L Na2CO3, 15 μl; H2O, 50 μl), and then transferred into the wells of polypropylene/ethylene microtiter plate, and placed at 4° C. overnight. After adding 120 μl of FCS-PBS, each well was blocked at 37° C. for 2 hours. Sera (dilution of 1:100) were then added to the wells, and incubated at 37° C. for 1 hour. Goat anti-human IgGs (dilution of 1:1000) (purchased from Sino-American Biotechnology Company, Beijing) were then added to the wells, and incubated at 37° C. for 1 hour. 50 μl of Solution A and Solution B (purchased from Beijing Kewei Reagent Company) were added to every well, placed in the dark for 5 min, and then the absorbance at 450 nm was measured.

Assay [5] has as its system γ-IFN. In words: Effects of the peptide on γ-IFN of rats in vivo. Further details: species or system SD Rats. The conditions noted are these: four immunizations. The source says:
SD Rats (body weight of each was 180 g˜220 g; half of them were male and the others were female; and they were purchased from the Animal Institute of Academy Of Military Medical Sciences) were divided randomly into 5 groups as follows with 10 rats in each group: (1) the blank control group; (2) the adjuvant control group; (3) the high dose group, immunized with Peptide A and adjuvant; (4) the low dose group, immunized with Peptide A and adjuvant; and (5) the peptide group, immunized with Peptide A only.
Rats in the high dose group and the low dose group were immunized as follows: At Day 0, the first immunization was performed by the following process: Peptide A dissolved in physiological saline was mixed thoroughly with the equivalent volume of Freund's complete adjuvant, and then 0.1 ml of the resultant water-in-oil emulsion was administered via subcutaneous injection to each rat, wherein the dosage of Peptide A contained in the emulsion was 50 μg/kg rat body weight for the high dose group and 25 μg/kg rat body weight for the low dose group respectively. […]
At the first day after the fourth immunization, rats from every group were sacrificed and splenocytes were collected. […] According to the specification of the manufacturer, the level of γ-IFN in sera of the above immunized rats was detected by using γ-IFN ELASA Quantikine ELASA Kit (purchased from R&D, Inc.).

[6] abbreviates: high, medium, low dosage (174, 87, 43.5 μg/kg) without adjuvants, subcutaneous, four immunizations, 12 h after LPS.
The mark [7] stands for this setting: high, medium, low dosage (250, 125, 62.5 μg/kg) with adjuvant, four immunizations, CCl4 subcutaneous.

Where two headings read alike, the source gives them in different places.

Turning to GQTYTSG [Peptide A], the “pathological condition of liver (score) versus model group” value in assay [1] (high and medium dosage (174, 87 μg/kg) without any adjuvants) is listed as “significant alleviation”; in assay [1] (low dosage (43.5 μg/kg) with adjuvant) it was “significant alleviation”. Also, the “level of glutamic-oxalacetic transaminase (SGOT) in sera versus model group” value in assay [1] (setting [6]) and in assay [2] (setting [7]) was “significant decrease” each time. Also, the “level of glutamic-pyruvic transaminase (SGPT) in sera versus model group” value in assay [1] (setting [6]) and in assay [2] (setting [7]) was “significant decrease” in each case. Further, the “protective effect on acute immunological liver damage (SGPT, SGOT)” value in assay [1] (low dose & adjuvant group, 43.5 μg/kg) was “protective effect”. Moreover, the “tetrachloromethane-induced hepatomegaly of mice” value in assay [2] (250 μg/kg mouse body weight) is listed as “significant reduction”. Also, the “pathological conditions of the liver tissues (score) versus model group” value in assay [2] (high dose group, 250 μg/kg with adjuvant) was “alleviated significantly”. Further, the “IL-10(pg/ml serum)” value in assay [3] came out at 27.94 ± 6.4 pg/ml serum. Moreover, the “reactivity in ELISA Assay to sera of patients with HBV” value in assay [4] was “negative”. Moreover, the “level of γ-IFN, Peptide A only with no adjuvant, versus same dosage of Peptide A and adjuvant” value in assay [5] (50 μg/kg subcutaneous) is reported as “even higher”. Further, the “γ-IFN in sera of the immunized rats compared to both of the control groups” value in assay [5] (Peptide A 50 or 25 μg/kg with adjuvant, or 50 μg/kg without adjuvant, FIG. 2) is “significant increase”.
